Laboratory results reported in paper PMC8110578, “Phenylethynylbenzyl-modified biguanides inhibit pancreatic cancer tumor growth” (Scientific Reports, 2021).

System: red blood cells
Assay: Hemolytic activity of PEB-biguanidium salts
Type: cell-based
Settings: red blood cells 2% v/v in PBS, 1 h at 37 °C
Experimental: The toxicity of PEB-Biguanidiums salts was estimated through their hemolytic activity by incubating red blood cells (RBC) with the compounds for 1 h (See Supplementary Table S13 and Supplementary Fig. S29).
Experimental. Red blood cells in Alsever’s solution were centrifuged for 10 min at 300g, washed 3 times with PBS buffer, and resuspended in PBS at 2% v/v. To each well of a 96-well plate, 195 µL of red blood cell solution and 5 µL of biguanidium salt in DMSO were added, and the plate was incubated with light agitation for 1 h at 37 °C. The plate was then centrifuged for 10 min at 300g, and 50 µL of the supernatant solution of each well was transferred to another plate. Absorbance was measured at λ = 405 nm. Each measurement was performed in triplicate in three different experiments.

## N=C(N)NC(=N)NCc1ccc(C#Cc2ccccc2)cc1 [1b, 4-(phenylethynyl)benzylbiguanide]
  HC 10% (µM): > 227 µM
  HC 10% (µg/ml): > 100 µg/mL
